Assay [1] concerns the target T1, Histamine H3 receptor (Cavia porcellus, UniProt Q9JI35). In words: Antagonistic activity for Histamine H3 receptor binding in guinea pig.
The target in assay [2] is T1, Histamine H3 receptor. The assay is described as follows: Antagonistic activity for Histamine H3 receptor on electrically evoked guinea-pig ileum contraction. The class given is functional, tissue-based.

T1 sequence (Q9JI35 whole entry): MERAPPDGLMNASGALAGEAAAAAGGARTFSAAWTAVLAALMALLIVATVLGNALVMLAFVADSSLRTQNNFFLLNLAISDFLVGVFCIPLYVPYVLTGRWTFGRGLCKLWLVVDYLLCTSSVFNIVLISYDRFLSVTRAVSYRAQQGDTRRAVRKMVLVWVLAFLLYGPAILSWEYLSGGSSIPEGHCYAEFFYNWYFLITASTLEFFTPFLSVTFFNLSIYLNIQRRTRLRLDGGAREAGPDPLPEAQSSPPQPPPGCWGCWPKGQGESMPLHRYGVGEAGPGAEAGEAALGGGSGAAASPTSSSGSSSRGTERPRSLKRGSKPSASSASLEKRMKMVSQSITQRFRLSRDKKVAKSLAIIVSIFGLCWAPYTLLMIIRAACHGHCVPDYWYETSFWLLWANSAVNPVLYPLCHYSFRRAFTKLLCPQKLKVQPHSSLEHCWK

The term Ki denotes the dissociation constant of the complex between target and ligand, obtained from inhibition or displacement. Lower therefore signals higher affinity. On to `N=C(NCCc1ccccc1)NCCc1cnc[nH]1`, for which the Ki was 110 nM in assay [1] and 100 nM in assay [2].

With `CCOC(=O)N/C(=N/CC1CCCCC1)NCCCc1c[nH]cn1`, the inhibition constant (Ki) in assay [1] was 36 nM; in assay [2] it was 39.8 nM. For `CC(C)(C)OC(=O)N/C(=N\CCCc1c[nH]cn1)NCc1ccc(I)cc1` the same measures were 12 nM and 12.6 nM.

Regarding `S=C(NC1CCCCC1)N1CCC(c2cnc[nH]2)CC1` [THIOPERAMIDE], the Ki in assay [2] was 3.98 nM. This counts as single-digit nanomolar. As to `N=C(NCCCc1c[nH]cn1)NCC1CCCCC1`, the Ki in assay [1] is 0.74 nM; in assay [2], 0.794 nM. For `N=C(NCCCc1c[nH]cn1)NCc1ccc(I)cc1` the same measures were 1.6 nM and 1.58 nM.

As for `N=C(NCCCCc1c[nH]cn1)NC1CCCCC1`, the Ki in assay [1] and in assay [2] was 5.01 nM throughout.

Take `CC(C)(C)OC(=O)N/C(=N/C1CCCCC1)NCCCCc1c[nH]cn1`: the inhibitory constant (Ki) was 7 nM in assay [1] and 6.31 nM in assay [2]. For `CC(C)(C)OC(=O)N/C(=N/CC1CCCCC1)NCCCc1c[nH]cn1` the same measures were 9.5 nM and 10 nM. Turning to `O=C(N/C(=N/CC1CCCCC1)NCCCc1c[nH]cn1)OCc1ccccc1`, the inhibition constant (Ki) in assay [1] is 13 nM; in assay [2] it was 12.6 nM. Take `N#CN=C(NCCCc1cnc[nH]1)NCC1CCCCC1`: the Ki in assay [1] was 22 nM; in assay [2], 20 nM.

Values taken from ChEMBL document CHEMBL1151603, “Unsymmetrically substituted guanidines as potent histamine H3-receptor antagonists” (Bioorg Med Chem Lett, 1994).
